Source: patent US7250434B2, “CCK-1 receptor modulators” (Janssen Pharmaceutica N.V., priority 2003, dated 2007)

Biological target: T1, CCK-1 receptor (Homo sapiens, UniProt P32238)
T1 construct: expressed in transfected cells; membranes
T1 sequence (P32238 1-428): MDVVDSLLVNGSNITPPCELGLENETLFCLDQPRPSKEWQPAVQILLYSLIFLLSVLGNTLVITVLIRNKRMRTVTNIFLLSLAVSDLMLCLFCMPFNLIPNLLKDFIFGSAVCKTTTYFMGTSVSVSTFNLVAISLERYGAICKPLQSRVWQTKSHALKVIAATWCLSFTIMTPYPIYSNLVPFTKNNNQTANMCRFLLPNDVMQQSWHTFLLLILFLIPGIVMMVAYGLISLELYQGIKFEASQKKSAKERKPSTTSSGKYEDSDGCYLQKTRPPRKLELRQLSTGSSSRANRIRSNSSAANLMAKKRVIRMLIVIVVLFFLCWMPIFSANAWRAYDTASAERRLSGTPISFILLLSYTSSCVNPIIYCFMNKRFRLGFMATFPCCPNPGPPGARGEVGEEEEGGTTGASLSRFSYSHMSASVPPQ
Assay: [125I]-BH-CCK-8S competition binding to membranes of CHO-K1 cells stably transfected with the CCK-1 receptor
Settings: membranes of CCK-1 transfected CHO-K1 cells; 20 pM [125I]-BH-CCK-8S; 0.3 μM PD-134,308 present; 60 min at 21±3° C.; Cheng-Prusoff
Experimental: CHO-K1 cells that had undergone stable transfection with the CCK-1 receptor were grown in DMEM supplemented with L-glutamine (2 mM), penicillin (50 units/mL) and streptomycin (50 μg/mL). Cells were cultured under continuous G418 selection (2 mM) and were harvested using a rubber cell scraper. CHO-K1 cells were sub-cultured a maximum of ten times before being reseeded from the original stocks.
Membranes were prepared from the stably transfected CHO-K1 cells. Frozen cell pellets (−40° C.) were thawed in 14 mL of buffer A (10 mM HEPES, 130 mM NaCl, 4.7 mM KCl, 5 mM MgCl, 1 mM EGTA and 15.4 mg/100 mL bacitracin at pH 7.2), adapted from Harper et al. (Br. J. Pharmacol. 1996, 118:1717-1726). The thawed pellets were homogenized using a Polytron PT-10 (7×1 s). The homogenates were centrifuged for 5 min at 1500 rpm (600×g), and the resulting pellets were discarded. The supernatants were re-centrifuged in order to collect the receptor-membrane pellets (25 min 15,000 rpm; 39,800×g), which were re-suspended in buffer A.
All assays were conducted in 96-well plates (GF/B millipore filter plates) using buffer A, with 0.3 μM PD-134,308, for the dilutions. The CCK-2 receptor ligand was included to eliminate the contribution of this receptor subtype to the binding. For the optimal cell number determination experiments 20 pM [^125I]-BH-CCK-8S (50 μL 60 pM solution) was incubated with a range of cell concentrations (2.5×105 to 12.5×10^5 cells/well) in a total volume of 150 μL. Total binding of [^125I]-BH-CCK-8S was determined in the presence of 15 μL of buffer A. Non-specific binding of [^125I]-BH-CCK-8S was determined in the presence of 15 μL of 100 μM 2-naphthalenesulphonyl L-aspartyl-(2-phenethyl)amide (2-NAP: see R. A. Hull et al. Br. J. Pharmacol. 1993, 108:734-740), a CCK-1 receptor selective antagonist that is structurally unrelated to the radioligand [^125I]-BH-CCK-8S. The assay preparation was incubated for 1 h at 21±3° C., and then the assay was terminated upon rapid filtration of the preparation under reduced pressure. The loaded filters were washed three times using undiluted PBS (100 μL), and then the residues were transferred to 5 mL scintillation tubes. Bound radioactivity was determined using a gamma counter (count time=1 min). From these experiments a cell concentration of 1 pellet in 40 mL of buffer (2.5×10^6 cells/mL) was chosen for use in other assays (below). To validate the radioligand concentration and incubation time for the assay, saturation and kinetic binding studies were also conducted (see M. F. Morton, The Pharmacological Characterization of Cholecystokinin Receptors in the Human Gastrointestinal Tract. PhD Thesis, University of London, 2000). The affinity of novel compounds was estimated by incubating membrane preparations with 15 μL of competing ligand (0.1 pM-1 mM) for 60 min at 21±3° C. The assay was then terminated according to the procedure outlined above.
The pKi values were determined using the equation of Y.-C. Cheng and W. H. Prusoff (Biochem. Pharmacol. 1973, 22(23):3099-3108):
[formula] To circumvent problems associated with computer-assisted data analysis of compounds with low affinity, the data obtained in the current study were weighted according to a method described by Morton (2000). In brief, 100% and 0% specific binding were defined independently using total binding and binding obtained in the presence of a high concentration of the reference antagonist, 2-NAP.

Row | Compound | Ki [nM]
1 | COc1ccc(-c2[nH]c(CC(C(=O)O)c3cccc(Cl)c3)nc2-c2ccc(Cl)c(Cl)c2)cc1 (centres unmarked) [Example 25, 2-(3-Chloro-phenyl)-3-[4-(3,4-dichloro-phenyl)-5-(4-methoxy-phenyl)-1H-imidazol-2-yl]-propionic acid] | 31.6
2 | O=C(O)/C(=C\c1nc(-c2cc(Cl)ccc2Cl)c(-c2ccc3c(c2)OCO3)[nH]1)c1cccc(Cl)c1 [Example 1, (Z)-3-[5-Benzo[1,3]dioxol-5-yl-4-(2,5-dichloro-phenyl)-1H-imidazol-2-yl]-2-(3-chloro-phenyl)-acrylic acid] | 2
3 | O=C(O)/C(=C/c1nc(-c2cc(Cl)ccc2Cl)c(-c2ccc3c(c2)OCO3)[nH]1)c1ccc(Cl)cc1 [Example 20, (E)-3-[5-Benzo[1,3]dioxol-5-yl-4-(2,5-dichloro-phenyl)-1H-imidazol-2-yl]-2-(4-chloro-phenyl)-acrylic acid] | 15.8
4 | O=C(O)/C(=C/c1nc(-c2cc(Cl)ccc2Cl)c(-c2ccc3c(c2)OCO3)[nH]1)c1cccc2ccccc12 [Example 23, (E)-3-[5-Benzo[1,3]dioxol-5-yl-4-(2,5-dichloro-phenyl)-1H-imidazol-2-yl]-2-naphthalen-1-yl-acrylic acid] | 79.4
5 | COc1ccc(-c2[nH]c(/C=C(/C(=O)O)c3cccc4ccccc34)nc2-c2ccc(Cl)c(Cl)c2)cc1 [Example 13, (E)-3-[4-(3,4-Dichloro-phenyl)-5-(4-methoxy-phenyl)-1H-imidazol-2-yl]-2-naphthalen-1-yl-acrylic acid] | 200
6 | O=C(O)C(Cc1nc(-c2ccccc2Cl)c(-c2ccccc2Cl)[nH]1)c1cccc2ccccc12 (centres unmarked) [Example 32, 3-[4,5-Bis-(2-chloro-phenyl)-1H-imidazol-2-yl]-2-naphthalen-1-yl-propionic acid] | 398
7 | Cc1ccc(/C(=C/c2nc(-c3cc(Cl)ccc3Cl)c(-c3ccc4c(c3)OCO4)[nH]2)C(=O)O)cc1 [Example 6, (Z)-3-[5-Benzo[1,3]dioxol-5-yl-4-(2,5-dichloro-phenyl)-1H-imidazol-2-yl]-2-p-tolyl-acrylic acid] | 3.98
8 | COc1ccc(-c2[nH]c(CC(C(=O)O)c3cccc4ccccc34)nc2-c2ccc(Cl)c(Cl)c2)cc1 (centres unmarked) [Example 26, 3-[4-(3,4-Dichloro-phenyl)-5-(4-methoxy-phenyl)-1H-imidazol-2-yl]-2-naphthalen-1-yl-propionic acid] | 39.8
9 | O=C(O)/C(=C\c1nc(-c2cc(Cl)ccc2Cl)c(-c2ccc3c(c2)OCO3)[nH]1)c1cccc2ccccc12 [Example 4, (Z)-3-[5-Benzo[1,3]dioxol-5-yl-4-(2,5-dichloro-phenyl)-1H-imidazol-2-yl]-2-naphthalen-1-yl-acrylic acid] | 2.51
10 | COc1ccc(-c2[nH]c(CC(C(=O)O)c3cccc(C)c3)nc2-c2ccc(Cl)c(Cl)c2)cc1 (centres unmarked) [Example 24, 3-[4-(3,4-Dichloro-phenyl)-5-(4-methoxy-phenyl)-1H-imidazol-2-yl]-2-m-tolyl-propionic acid] | 31.6
11 | COc1ccc(-c2[nH]c(CC(C(=O)O)c3cccc(C(F)(F)F)c3)nc2-c2ccc(Cl)c(Cl)c2)cc1 (centres unmarked) [Example 27, 3-[4-(3,4-Dichloro-phenyl)-5-(4-methoxy-phenyl)-1H-imidazol-2-yl]-2-(3-trifluoromethyl-phenyl)-propionic acid] | 50.1
12 | Cc1cccc(/C(=C\c2nc(-c3cc(Cl)ccc3Cl)c(-c3ccc4c(c3)OCO4)[nH]2)C(=O)O)c1 [Example 19, (E)-3-[5-Benzo[1,3]dioxol-5-yl-4-(2,5-dichloro-phenyl)-1H-imidazol-2-yl]-2-m-tolyl-acrylic acid] | 15.8
13 | COc1ccc(-c2[nH]c(/C=C(\C(=O)O)c3cccc(Cl)c3)nc2-c2ccc(Cl)c(Cl)c2)cc1 [Example 8, (Z)-2-(3-Chloro-phenyl)-3-[4-(3,4-dichloro-phenyl)-5-(4-methoxy-phenyl)-1H-imidazol-2-yl]-acrylic acid] | 5.01
14 | COc1ccc(-c2[nH]c(/C=C(\C(=O)O)c3ccc(C)cc3)nc2-c2ccc(Cl)c(Cl)c2)cc1 [Example 11, (Z)-3-[4-(3,4-Dichloro-phenyl)-5-(4-methoxy-phenyl)-1H-imidazol-2-yl]-2-p-tolyl-acrylic acid] | 10
15 | O=C(O)C(Cc1nc(-c2ccc(F)cc2)c(-c2ccc(F)cc2)[nH]1)c1cccc2ccccc12 (centres unmarked) [Example 34, 3-[4,5-Bis-(4-fluoro-phenyl)-1H-imidazol-2-yl]-2-naphthalen-1-yl-propionic acid] | 10000
16 | COc1ccc(-c2[nH]c(CC(C(=O)O)c3ccc(C)cc3)nc2-c2ccc(Cl)c(Cl)c2)cc1 (centres unmarked) [Example 29, 3-[4-(3,4-Dichloro-phenyl)-5-(4-methoxy-phenyl)-1H-imidazol-2-yl]-2-p-tolyl-propionic acid] | 126
17 | Cc1ccc(-c2nc(CC(C(=O)O)c3cccc(C)c3)n(C)c2-c2ccc(C)cc2)cc1 (centres unmarked) [Example 31, 3-(1-Methyl-4,5-di-p-tolyl-1H-imidazol-2-yl)-2-m-tolyl-propionic acid] | 39.8
18 | COc1ccc(-c2[nH]c(/C=C(/C(=O)O)c3ccc(C)cc3)nc2-c2ccc(Cl)c(Cl)c2)cc1 [Example 14, (E)-3-[4-(3,4-Dichloro-phenyl)-5-(4-methoxy-phenyl)-1H-imidazol-2-yl]-2-p-tolyl-acrylic acid] | 100
19 | O=C(O)/C(=C/c1nc(-c2cc(Cl)ccc2Cl)c(-c2ccc3c(c2)OCO3)[nH]1)c1cccc(C(F)(F)F)c1 [Example 21, (E)-3-[5-Benzo[1,3]dioxol-5-yl-4-(2,5-dichloro-phenyl)-1H-imidazol-2-yl]-2-(3-trifluoromethyl-phenyl)-acrylic acid] | 20
20 | COc1ccc(-c2[nH]c(/C=C(\C(=O)O)c3cccc(C)c3)nc2-c2ccc(Cl)c(Cl)c2)cc1 [Example 9, (Z)-3-[4-(3,4-Dichloro-phenyl)-5-(4-methoxy-phenyl)-1H-imidazol-2-yl]-2-m-tolyl-acrylic acid] | 7.94
